# Measurements: patent US8808702B2, “Sulfide, sulfoxide and sulfone chalcone analogues, derivatives thereof and therapeutic uses thereof” (Temple University-of the Commonwealth System of Higher …, priority 2006, dated 2014)
# Read-outs that look alike come from different tables or passages of the source.
# Legend:
# [1] = tested on: K562 (chronic myelogenous leukaemia); test: Effect of compounds on tumor cell lines (assay of Latham et al.), K562; type: cell-based; conditions: Homo sapiens, Table 4, K562 cells, examined 96 hours after treatment, 1 μM to 100 μM in DMSO
# Procedure, shortened: (§1)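 After 96 h of exposure to compound (1–100 μM in DMSO; one compound at 0.1–100 μM), effects were scored by inverted-microscope inspection, with trypan blue viable counts by hemacytometer when required. Cells were seeded at 2.5×10^4 per well and dosed 24 h after plating.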
# DU145 (prostate cancer) = test: Effect of compounds on tumor cell lines (assay of Latham et al.), DU145; type: cell-based; conditions: Homo sapiens, DU-145, Table 4, DU145 cells, examined 96 hours after treatment, 1 μM to 100 μM in DMSO
# Procedure, shortened: as §1
# [2] = read-out: DU 145 potency (IC50)
# [3] = read-out: K 562 potency (IC50), given as number
SMILES,melting point,IC50 ([1]; read-out: K 562 potency (IC50)),IC50 (DU145 (prostate cancer); [2]),"IC50 [1, 3]","IC50 (DU145 (prostate cancer); read-out: DU 145 potency (IC50), given as number)"
O=C(/C(=C\c1ccc(Br)cc1)S(=O)(=O)Cc1ccc(F)cc1)c1ccc(Br)cc1 [Example 409],164 to 168 °C,10 to 25 µM,25 to 50 µM,,
CCOc1ccc(/C=C(\C(=O)c2ccc(Cl)cc2)S(=O)(=O)Cc2ccc(F)cc2)cc1OC [Example 412],145 to 149 °C,25 to 50 µM,50 to 100 µM,,
Cc1ccc(CS(=O)(=O)/C(=C/c2c(O)cc(O)cc2O)C(=O)c2ccc(Cl)cc2)cc1 [Example 424],167 to 180 °C,> 100 µM,> 100 µM,,
Cc1ccc(CS(=O)(=O)/C(=C/c2cc(C)ccc2C)C(=O)c2ccc(Cl)cc2)cc1 [Example 425],176 to 182 °C,1 to 10 µM,1 to 10 µM,,
Cc1ccc(CS(=O)(=O)/C(=C/c2cc(C)cc(C)c2)C(=O)c2ccc(Cl)cc2)cc1 [Example 429],169 to 178 °C,10 to 25 µM,10 to 25 µM,,
Cc1ccc(CS(=O)(=O)/C(=C/c2c[nH]c3ccccc23)C(=O)c2ccc(Cl)cc2)cc1 [Example 430],160 to 165 °C,> 100 µM,25 to 50 µM,,
Cc1ccc(CS(=O)(=O)/C(=C/c2ccc(Br)cc2)C(=O)c2ccc(Cl)cc2)cc1 [Example 433],160 to 165 °C,10 to 25 µM,25 to 50 µM,,
Cc1ccc(CS(=O)(=O)/C(=C/c2ccc(C)s2)C(=O)c2ccc(Cl)cc2)cc1 [Example 440],171 to 178 °C,25 to 50 µM,25 to 50 µM,,

# Continued, values first:
melting point,IC50 ([1]; read-out: K 562 potency (IC50)),IC50 (DU145 (prostate cancer); [2]),"IC50 [1, 3]","IC50 (DU145 (prostate cancer); read-out: DU 145 potency (IC50), given as number)",SMILES
168 to 170 °C,,,> 50 µM,> 50 µM,O=C(/C(=C\c1ccc(Br)cc1)S(=O)(=O)Cc1ccc(I)cc1)c1ccc(Br)cc1 [Example 418]
180 to 182 °C,25 to 50 µM,25 to 50 µM,,,"O=C(/C(=C\c1ccc(Br)cc1)S(=O)(=O)Cc1ccc(I)cc1)c1ccc(I)cc1 [Example 419, (E)-1-(4-Iodophenyl)-2-(4-iodobenzylsulfonyl)-3-(4-bromophenyl)prop-2-en-1-one]"
160 to 162 °C,,25 to 50 µM,> 50 µM,,"O=C(/C(=C\c1ccc(I)cc1)S(=O)(=O)Cc1ccc(I)cc1)c1ccc(Br)cc1 [Example 420, (E)-1-(4-bromophenyl)-2-(4-iodobenzylsulfonyl)-3-(4-iodophenyl)-prop-2-en-1-one]"
175 to 177 °C,,25 to 50 µM,> 50 µM,,"O=C(/C(=C\c1ccc(I)cc1)S(=O)(=O)Cc1ccc(I)cc1)c1ccc(I)cc1 [Example 421, (E)-1-(4-iodophenyl)-2-(4-iodobenzylsulfonyl)-3-(4-iodophenyl)-prop-2-en-1-one]"
162 to 165 °C,1 to 10 µM,1 to 10 µM,,,Cc1ccc(CS(=O)(=O)/C(=C/c2cccc(Cl)c2Cl)C(=O)c2ccc(Cl)cc2)cc1 [Example 423]
112 to 129 °C,1 to 10 µM,1 to 10 µM,,,Cc1ccc(CS(=O)(=O)/C(=C/c2ccccc2OCc2ccccc2)C(=O)c2ccc(Cl)cc2)cc1 [Example 426]
98 to 105 °C,25 to 50 µM,25 to 50 µM,,,Cc1ccc(CS(=O)(=O)/C(=C/c2sccc2C)C(=O)c2ccc(Cl)cc2)cc1 [Example 431]
150 to 154 °C,50 to 100 µM,50 to 100 µM,,,Cc1ccc(CS(=O)(=O)/C(=C/c2ccc(N(C)C)cc2)C(=O)c2ccc(Cl)cc2)cc1 [Example 432]
128 to 133 °C,25 to 50 µM,25 to 50 µM,,,Cc1ccc(CS(=O)(=O)/C(=C/c2ccc(Cl)cc2)C(=O)c2ccc(Cl)cc2)cc1 [Example 434]
65 to 72 °C,10 to 25 µM,10 to 25 µM,,,CCOc1ccc(/C=C(\C(=O)c2ccc(Cl)cc2)S(=O)(=O)Cc2ccc(C)cc2)cc1OC [Example 435]
140 to 152 °C,25 to 50 µM,10 to 25 µM,,,CSc1ccc(/C=C(\C(=O)c2ccc(Cl)cc2)S(=O)(=O)Cc2ccc(C)cc2)cc1 [Example 437]
110 to 112 °C,1 to 10 µM,10 to 25 µM,,,Cc1ccc(CS(=O)(=O)/C(=C/c2ccc(S(C)(=O)=O)cc2)C(=O)c2ccc(Br)cc2)cc1 [Example 438]
186 to 195 °C,10 to 25 µM,10 to 25 µM,,,Cc1ccc(CS(=O)(=O)/C(=C/c2c[nH]c3ccc(Br)cc23)C(=O)c2ccc(Cl)cc2)cc1 [Example 439]
